According to patent US6080771A, “DC107 derivatives” (Kyowa Hakko Kogyo Co., Ltd., priority 1996, dated 2000):
Converted amounts (≈) assume the structure as drawn. Read-outs that look alike come from different tables or passages of the source.

How the values were obtained:
[1] = test system: Staphylococcus aureus ATCC 6538P; test: Antimicrobial activity, agar dilution method (MIC), SA; type: cell-based; conditions: ATCC6538P, pH 7, read-out: MIC, SA
Text: | SA: Staphylococcus aureus ATCC 6538P

[2] = test system: Bacillus substilis NO. 10707; test: Antimicrobial activity, agar dilution method (MIC), BS; type: cell-based
Text: | BS: Bacillus substilis NO. 10707

[3] = test system: Klebisiella pneumoniae ATCC 10031; test: Antimicrobial activity, agar dilution method (MIC), KP; type: cell-based
Text: | KP: Klebisiella pneumoniae ATCC 10031

Escherichia coli ATCC 26 = test: Antimicrobial activity, agar dilution method (MIC), EC; type: cell-based
Text: | EC: Escherichia coli ATCC 26

[4] = test system: Sarcoma 180 mouse solid tumor; test: Antitumor activity against Sarcoma 180 mouse solid tumor; type: in vivo, male ddY mice; conditions: Sarcoma-180, iv, 168 h, single i.v., tumor volume on day 7 from transplant, read-out: T/C (tumor volume ratio treated/control)
Experimental: To a ddY mouse were intraperitoneally transplanted 5×10^6 sarcoma 180 cells. On the seventh day from the transplant, the cells were collected from the ascites, washed once with sterilized physiological saline, and then diluted with sterilized physiological saline to prepare a cell suspension having a concentration of 5×10^7 cells/mL. This suspension was transplanted in an amount of 0.01 mL to a subcutaneous part of the right axilla of each of male ddY mice each weighing 20±1 g.
A test compound was dissolved in physiological saline containing polyoxyethylene sorbitan monolaurate. At 24 hours after the tumor transplant, 0.2 mL of the solution was intravenously administered to the tail of each of a group of five mice.

[5] = test system: Enterococcus hirae ATCC 10541; test: Antimicrobial activity, agar dilution method (MIC), EH; conditions: pH 7
Experimental: Antimicrobial activity was determined by the agar dilution method using a culture medium (pH 7) prepared by dissolving 3 g of Bacto-Tryptone (manufactured by Difco, Co.), 3 g of meat extract, 1 g of yeast extract, 1 g of glucose, and 16 g of agar in 1 l of water.
EH: Enterococcus hirae ATCC 10541

HeLa S3 cells = test: HeLa S3 cell growth inhibition test (Neutral Red); type: cell-based; conditions: Homo sapiens, HeLa S3; 72 hours, 37° C.; read-out: HeLa S3 Cell Growth Inhibition Activity, IC50
Experimental: In each well of a 96-well microtiter plate was placed 0.1 mL of HeLa S3 cells having a concentration of 8×10^3 cells/mL and prepared in an MEM culture medium containing 10% fetal bovine serum and 2 mM glutamine. After the cells were incubated overnight at 37° C. in a carbon dioxide incubator, a test compound suitably diluted with a medium was added to the wells in an amount of 0.05 mL for each well. The cells were incubated at 37° C. for 72 hours in a carbon dioxide incubator. After the culture supernatant was removed, 0.1 mL of a culture medium containing 0.02% Neutral Red was added to each well. The cells were then incubated at 37° C. for 1 hour in a carbon dioxide incubator to dye the cells. After the culture supernatant was removed, each residue was rinsed once with physiological saline and the pigment was extracted with 0.001N hydrochloric acid/30% ethanol. The absorbance at 550 nm of each extract was measured with a microplate reader. The drug concentration required for the 50% inhibition of cell growth, which is referred to as IC50, was calculated by comparing the absorbance for untreated cells with those for cells treated with the drug in known concentrations.

[6] = NO.10707, agar dilution, pH 7, read-out: MIC, BS
[7] = agar dilution, pH 7, read-out: MIC, KP
[8] = ATCC26, pH 7, read-out: MIC, EC
[9] = NO.10707, pH 7, read-out: MIC, BS
[10] = ATCC26, agar dilution, pH 7, read-out: MIC, EC

C/C1=C\C(OC(=O)COCCOCCO)C(=O)/C=C/C=C\c2csc(n2)C(C)NC(=O)CC2(CC1)[S+]([O-])SC(=O)C2(C)O (centres unmarked) [Compound 8]
MIC ([1]; agar dilution): 0.13 µg/mL (≈ 0.198 µM)
MIC [2, 6]: 0.13 µg/mL (≈ 0.198 µM)
MIC [3, 7]: 0.13 µg/mL (≈ 0.198 µM)
MIC (Escherichia coli ATCC 26; [8]): 2.1 µg/mL (≈ 3.2 µM)
response vs control in vivo at 4 mg/kg [4]: 36%
MIC, EH [5]: 0.13 µg/mL (≈ 0.198 µM)

COCCOCCOC(C)(C)C(=O)OC1/C=C(\C)CCC2(CC(=O)NC(C)c3nc(cs3)/C=C\C=C\C1=O)[S+]([O-])SC(=O)C2(C)O (centres unmarked) [Compound 10]
MIC ([1]; agar dilution): 0.081 µg/mL (≈ 0.116 µM)
MIC [2, 6]: 0.041 µg/mL (≈ 0.0587 µM)
MIC [3, 7]: 0.65 µg/mL (≈ 0.93 µM)
MIC (Escherichia coli ATCC 26; [8]): 0.65 µg/mL (≈ 0.93 µM)
MIC, EH [5]: 0.081 µg/mL (≈ 0.116 µM)

COCCOCC(=O)OC1/C=C(\C)CCC2(C(C)(O)C(=O)SCc3oc(=O)oc3C)CC(=O)N(C(C)c3nc(cs3)/C=C\C=C\C1=O)[S+]2[O-] (centres unmarked) [Compound 11]
IC50 (HeLa S3 cells): 30 nM

COCCOCCOCCOCC(=O)OC1/C=C(\C)CCC2(C(C)(O)C(=O)SCc3oc(=O)oc3C)CC(=O)N(C(C)c3nc(cs3)/C=C\C=C\C1=O)[S+]2[O-] (centres unmarked) [Compound 13]
response vs control in vivo at 8 mg/kg [4]: 39%

C/C1=C\C(OC(=O)COCCOCCO)C(=O)/C=C/C=C\c2csc(n2)C(C)N2C(=O)CC(C(C)(O)C(=O)SCc3oc(=O)oc3C)(CC1)[S+]2[O-] (centres unmarked) [Compound 17]
MIC [1]: 1.8 µg/mL (≈ 2.34 µM)
MIC [2, 9]: 1.82 µg/mL (≈ 2.37 µM)
MIC ([3]; pH 7, read-out: MIC, KP): 1.8 µg/mL (≈ 2.34 µM)
response vs control in vivo at 8 mg/kg [4]: 37%
MIC, EH [5]: 1.8 µg/mL (≈ 2.34 µM)

COCCOCCOCCOCCOCCOCC(=O)OC1/C=C(\C)CCC2(C(C)(O)C(=O)SCC3=C(C)OC(C)(C)OC3=O)CC(=O)N(C(C)c3nc(cs3)/C=C\C=C\C1=O)[S+]2[O-] (centres unmarked) [Compound 21]
response vs control in vivo at 16 mg/kg ([4]; 16 mg/kg): 45%

COCCOCCOCC(=O)OC1/C=C(\C)CCC2(C(C)(O)C(=O)SCOC(=O)CC[C@H](NC(=O)OC(C)(C)C)C(=O)OC(C)(C)C)CC(=O)N(C(C)c3nc(cs3)/C=C\C=C\C1=O)[S+]2[O-] (some centres unmarked) [Compound 23]
IC50 (HeLa S3 cells): 43 nM
response vs control in vivo at 8 mg/kg [4]: 48%

COCCOCCOCCOCCOCCOCC(=O)OC1/C=C(\C)CCC2(C(C)(O)C(=O)SCOC(=O)CNC(=O)OC(C)(C)C)CC(=O)N(C(C)c3nc(cs3)/C=C\C=C\C1=O)[S+]2[O-] (centres unmarked) [Compound 24]
IC50 (HeLa S3 cells): 21 nM

C/C1=C\C(OC(=O)COCCOCCOCCOCCO)C(=O)/C=C/C=C\c2csc(n2)C(C)NC(=O)CC2(CC1)[S+]([O-])SC(=O)C2(C)O (centres unmarked) [Compound 27]
MIC ([1]; agar dilution): 0.13 µg/mL (≈ 0.175 µM)
MIC [2, 6]: 0.13 µg/mL (≈ 0.175 µM)
MIC [3, 7]: 0.065 µg/mL (≈ 0.0873 µM)
MIC (Escherichia coli ATCC 26; [8]): 16.7 µg/mL (≈ 22.4 µM)
response vs control in vivo at 8 mg/kg [4]: 18%
MIC, EH [5]: 0.065 µg/mL (≈ 0.0873 µM)

COCCOCCOCC(=O)OC1/C=C(\C)CCC2(C(C)(O)C(=O)SCOC(=O)CC[C@H](NC(=O)[C@@]34O[C@H]5COC(C)(C)O[C@H]5[C@@H]3OC(C)(C)O4)C(=O)OC)CC(=O)N(C(C)c3nc(cs3)/C=C\C=C\C1=O)[S+]2[O-] (some centres unmarked) [Compound 28]
response vs control in vivo at 8 mg/kg [4]: 31%

COCCOCCOCC(=O)OC1/C=C(\C)CCC2(C(C)(O)C(=O)SCOC(=O)CC[C@H](NC(=O)C3(C)COC(C)(C)OC3)C(=O)OC)CC(=O)N(C(C)c3nc(cs3)/C=C\C=C\C1=O)[S+]2[O-] (some centres unmarked) [Compound 29]
response vs control in vivo at 8 mg/kg [4]: 47%

COCCOCCOCC(=O)OCCOCCOCC(=O)OC1/C=C(\C)CCC2(CC(=O)NC(C)c3nc(cs3)/C=C\C=C\C1=O)[S+]([O-])SC(=O)C2(C)O (centres unmarked) [Compound 30]
response vs control in vivo at 4 mg/kg [4]: 43%

COCCOCC(=O)OCCOCCOCC(=O)OC1/C=C(\C)CCC2(CC(=O)NC(C)c3nc(cs3)/C=C\C=C\C1=O)[S+]([O-])SC(=O)C2(C)O (centres unmarked) [Compound 31]
MIC ([1]; agar dilution): 0.11 µg/mL (≈ 0.142 µM)
MIC [2, 6]: 0.057 µg/mL (≈ 0.0737 µM)
MIC [3, 7]: 0.057 µg/mL (≈ 0.0737 µM)
MIC (Escherichia coli ATCC 26; [8]): 3.65 µg/mL (≈ 4.72 µM)
response vs control in vivo at 8 mg/kg [4]: 12%
MIC, EH [5]: 0.11 µg/mL (≈ 0.142 µM)

C/C1=C\C(OC(=O)COCCCO)C(=O)/C=C/C=C\c2csc(n2)C(C)NC(=O)CC2(CC1)[S+]([O-])SC(=O)C2(C)O (centres unmarked) [Compound 33]
MIC ([1]; agar dilution): 0.13 µg/mL (≈ 0.207 µM)
MIC [2, 6]: 0.065 µg/mL (≈ 0.104 µM)
MIC [3, 7]: 0.13 µg/mL (≈ 0.207 µM)
MIC (Escherichia coli ATCC 26; [10]): 1 µg/mL (≈ 1.6 µM)
response vs control in vivo at 2 mg/kg [4]: 36%
MIC, EH [5]: 0.065 µg/mL (≈ 0.104 µM)

C/C1=C\C(OC(=O)COCCCCO)C(=O)/C=C/C=C\c2csc(n2)C(C)NC(=O)CC2(CC1)[S+]([O-])SC(=O)C2(C)O (centres unmarked) [Compound 35]
MIC ([1]; agar dilution): 0.098 µg/mL (≈ 0.153 µM)
MIC [2, 6]: 0.2 µg/mL (≈ 0.312 µM)
MIC [3, 7]: 0.098 µg/mL (≈ 0.153 µM)
MIC (Escherichia coli ATCC 26; [8]): 1.6 µg/mL (≈ 2.5 µM)
response vs control in vivo at 4 mg/kg [4]: 22%
MIC, EH [5]: 0.098 µg/mL (≈ 0.153 µM)

C/C1=C\C(OC(=O)COCCOCCOCCOCCO)C(=O)/C=C/C=C\c2csc(n2)C(C)N2C(=O)CC(C(C)(O)C(=O)SCc3oc(=O)oc3C)(CC1)[S+]2[O-] (centres unmarked) [Compound 38]
MIC [1]: 3.7 µg/mL (≈ 4.32 µM)
MIC [2, 9]: 1.8 µg/mL (≈ 2.1 µM)
MIC ([3]; pH 7, read-out: MIC, KP): 1.8 µg/mL (≈ 2.1 µM)
response vs control in vivo at 8 mg/kg [4]: 43%
MIC, EH [5]: 1.8 µg/mL (≈ 2.1 µM)

COCCOCCOCC(=O)OC1/C=C(\C)CCC2(C(C)(O)C(=O)SCOC(=O)OCCN3CCCC3=O)CC(=O)N(C(C)c3nc(cs3)/C=C\C=C\C1=O)[S+]2[O-] (centres unmarked) [Compound 44]
response vs control in vivo at 2 mg/kg [4]: 43%

COCCOCCOCC(=O)OC1/C=C(\C)CCC2(C(C)(O)C(=O)SCOC(=O)OCCOCCOC)CC(=O)N(C(C)c3nc(cs3)/C=C\C=C\C1=O)[S+]2[O-] (centres unmarked) [Compound 45]
response vs control in vivo at 4 mg/kg [4]: 45%

COCCOCCOCC(=O)OC1/C=C(\C)CCC2(C(C)(O)C(=O)SCOC(=O)COCCOCCO)CC(=O)N(C(C)c3nc(cs3)/C=C\C=C\C1=O)[S+]2[O-] (centres unmarked) [Compound 47]
response vs control in vivo at 8 mg/kg [4]: 40%

CC(=O)OCC1OC(OC2C=C(C)CCC3(CC(=O)NC(C)c4nc(cs4)C=CC=CC2=O)[S+]([O-])SC(=O)C3(C)O)C=CC1OC(C)=O (centres unmarked) [Compound 50]
MIC ([1]; agar dilution): 0.02 µg/mL (≈ 0.0277 µM)
MIC [2, 6]: 0.02 µg/mL (≈ 0.0277 µM)
MIC [3, 7]: 0.16 µg/mL (≈ 0.221 µM)
MIC (Escherichia coli ATCC 26; [10]): 0.16 µg/mL (≈ 0.221 µM)
IC50 (HeLa S3 cells): 3.5 nM
MIC, EH [5]: 0.020 µg/mL (≈ 0.0277 µM)

CC(=O)O[C@H]1[C@H](C)OC(OC2/C=C(\C)CCC3(C(C)(O)C(=O)SCc4oc(=O)oc4C)CC(=O)N(C(C)c4nc(cs4)/C=C\C=C\C2=O)[S+]3[O-])C[C@@H]1OC(C)=O (some centres unmarked) [Compound 66]
IC50 (HeLa S3 cells): 6.1 nM
response vs control in vivo at 4 mg/kg [4]: 47%

C/C1=C\C(OC2C=C[C@@H](O)[C@H](C)O2)C(=O)/C=C/C=C\c2csc(n2)C(C)N2C(=O)CC(C(C)(O)C(=O)SCc3oc(=O)oc3C)(CC1)[S+]2[O-] (some centres unmarked) [Compound 67]
response vs control in vivo at 8 mg/kg [4]: 44%

CC(=O)O[C@@H]1C=CC(OC2/C=C(\C)CCC3(C(C)(O)C(=O)SCc4oc(=O)oc4C)CC(=O)N(C(C)c4nc(cs4)/C=C\C=C\C2=O)[S+]3[O-])O[C@H]1C (some centres unmarked) [Compound 68]
response vs control in vivo at 8 mg/kg [4]: 50%

CC(=O)O[C@@H]1C=CC(OC2/C=C(\C)CCC3(C(C)(O)C(=O)SCc4oc(=O)oc4C)CC(=O)N(C(C)c4nc(cs4)/C=C\C=C\C2=O)[S+]3[O-])O[C@H]1C (some centres unmarked) [Compound 69]
IC50 (HeLa S3 cells): 3.2 nM
